{
  "source": "patent US20100203576A1",
  "about": "“PROCESS FOR DETERMINATION OF MICROORGANISMS' RESISTANCE TO ANTIBIOTICS” (INTELLIGENCE ARTIFICIELLE APPLICATIONS, priority 2009, published 2010)",
  "test_system": "Escherichia coli",
  "assay": "Antibiogram resistance of similar Escherichia coli strains recorded in the data base",
  "assay_type": "cell-based",
  "design": "key to Resistance, MO list in data base 1 / Resistance, MO list in data base 2 / Resistance, MO list in data base 3 / Resistance, MO list in data base 4: R: significant resistance; I: average resistance; S: without resistance",
  "settings": "for Resistance of Escherichia coli species 1 to 4 (in words): Escherichia coli species 1 to 4, similar between 98.5 to 83.6% to the urine specimen strain; for Resistance, MO list in data base 1: Escherichia coli strain 1, similarity 98.5%; for Resistance, MO list in data base 2: Escherichia coli strain 2, similarity 97.8%; for Resistance, MO list in data base 3: Escherichia coli strain 3, similarity 84.2%; for Resistance, MO list in data base 4: Escherichia coli strain 4, similarity 83.6%",
  "data": [
    {"compound": "gentamicin", "values": [
      {"measurement": "Resistance of Escherichia coli species 1 to 4 (in words)", "result": "not resistant"},
      {"measurement": "Resistance, MO list in data base 1", "result": "S"},
      {"measurement": "Resistance, MO list in data base 2", "result": "S"},
      {"measurement": "Resistance, MO list in data base 3", "result": "S"},
      {"measurement": "Resistance, MO list in data base 4", "result": "S"}
    ]},
    {"compound": "CO/N=C(\\C(=O)N[C@@H]1C(=O)N2C(C(=O)O)=C(CSc3nc(=O)c(O)nn3C)CS[C@H]12)c1csc(N)n1", "note": "[CETRIAXONE, cetriaxone]", "values": [
      {"measurement": "Resistance of Escherichia coli species 1 to 4 (in words)", "result": "not resistant"},
      {"measurement": "Resistance, MO list in data base 1", "result": "S"},
      {"measurement": "Resistance, MO list in data base 2", "result": "S"},
      {"measurement": "Resistance, MO list in data base 3", "result": "S"},
      {"measurement": "Resistance, MO list in data base 4", "result": "S"}
    ]},
    {"compound": "CC(=O)OCC1=C(C(=O)O)N2C(=O)[C@@H](NC(=O)Cc3cccs3)[C@H]2SC1", "note": "[CEPHALOTIN, cefalotin]", "values": [
      {"measurement": "Resistance of Escherichia coli species 1 to 4 (in words)", "result": "resistant"},
      {"measurement": "Resistance, MO list in data base 1", "result": "R"},
      {"measurement": "Resistance, MO list in data base 2", "result": "R"},
      {"measurement": "Resistance, MO list in data base 3", "result": "R"},
      {"measurement": "Resistance, MO list in data base 4", "result": "R"}
    ]},
    {"compound": "CCN1CCN(C(=O)N[C@@H](C(=O)N[C@@H]2C(=O)N3[C@@H]2SC(C)(C)[C@@H]3C(=O)O)c2ccccc2)C(=O)C1=O", "note": "[PIPERACILLIN, piperacillin]", "values": [
      {"measurement": "Resistance of Escherichia coli species 1 to 4 (in words)", "result": "resistant"},
      {"measurement": "Resistance, MO list in data base 1", "result": "R"},
      {"measurement": "Resistance, MO list in data base 2", "result": "R"},
      {"measurement": "Resistance, MO list in data base 3", "result": "R"},
      {"measurement": "Resistance, MO list in data base 4", "result": "R"}
    ]},
    {"compound": "O=C(O)c1cn(C2CC2)c2cc(N3CCNCC3)c(F)cc2c1=O", "note": "[CIPROFLOXACIN]", "values": [
      {"measurement": "Resistance, MO list in data base 1", "result": "R"},
      {"measurement": "Resistance, MO list in data base 2", "result": "R"},
      {"measurement": "Resistance, MO list in data base 4", "result": "I"}
    ]},
    {"compound": "CC1(C)S[C@@H]2[C@H](NC(=O)[C@H](N)c3ccc(O)cc3)C(=O)N2[C@H]1C(=O)O", "note": "[AMOXICILLIN, amoxicillin]", "values": [
      {"measurement": "Resistance of Escherichia coli species 1 to 4 (in words)", "result": "resistant"},
      {"measurement": "Resistance, MO list in data base 1", "result": "R"},
      {"measurement": "Resistance, MO list in data base 2", "result": "R"},
      {"measurement": "Resistance, MO list in data base 3", "result": "R"},
      {"measurement": "Resistance, MO list in data base 4", "result": "R"}
    ]}
  ]
}
